Experimental data as given in US20100312139A1, “Method for Identifying Mammals at Risk for Elevated intracranial Pressure” (BOARD OF REGENTS OF THE UNIVERSITY OF TEXAS SYSTEM, priority 2009, published 2010).

Test system: TBI-associated cerebral edema, controlled cortical impact model
Test: Cerebral edema as percentage brain water content (wet-dry method) after controlled cortical impact brain injury
Assay type: in vivo
Details: rat, 400 mg/kg administered 30 minutes after cortical impact injury, measured 24 hr after injury, versus control animals
Method: A number of studies have reported that blood-brain barrier compromise and cerebral edema are key contributors to the elevation of ICP. Penicillamine is a copper scavenger that is FDA approved for the treatment of Wilson's disease. Therefore penicillamine was used in this study to determine if sequestration of copper would restore TBI-associated BBB permeability and cerebral edema. […] BBB permeability was assessed by measuring the extravasation of Evans Blue dye as described in Zhao, et al., 2007 (Zhao, J., Moore, A. N., Redell, J. B. and Dash, P. K. 2007. Enhancing expression of Nrf2-driven genes protects the blood brain barrier after brain injury. J. Neurosci. 27, 10240-10248).
Cerebral edema was assessed by determining the percentage brain water content using the wet-dry method as described previously (McIntosh, T. K., Soares, H., Thomas, M. and Cloherty, K. 1990. Development of regional cerebral oedema after lateral fluid-percussion brain injury in the rat. Acta Neurochir. Suppl (Wien.) 51, 263-264; Shohami, E., Novikov, M. and Mechoulam, R. 1993. A nonpsychotropic cannabinoid, HU-211, has cerebroprotective effects after closed head injury in the rat. J. Neurotrauma 10, 109-119). BBB permeability and cerebral edema were measured 24 hr after injury, in independent sets of animals.

**Q.** Which “effect on cerebral edema (percentage brain water content)” value does the source give for `CC(C)(S)[C@@H](N)C(=O)O` [penicillamine, Penicillamine] here?
**A.** did not have any effect
